Source: PubChem BioAssay (NCI)
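Five concentrations, 48 hours, 96-well plates. The concentration for 50% growth inhibition is given as GI50. TGI: total growth inhibition.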

Tests used:
Assay in all cases: DTP human tumour cell line panel, 48 h
786-0 renal = test system: 786-0 renal
A549 NSCLC = test system: A549 NSCLC
ACHN renal = test system: ACHN renal
CAKI-1 renal = test system: CAKI-1 renal
CCRF-CEM leukemia = test system: CCRF-CEM leukemia
COLO 205 colon = test system: COLO 205 colon
DU-145 prostate = test system: DU-145 prostate
EKVX NSCLC = test system: EKVX NSCLC
HCC-2998 colon = test system: HCC-2998 colon
HCT-116 colon = test system: HCT-116 colon
HCT-15 colon = test system: HCT-15 colon
HL-60(TB) leukemia = test system: HL-60(TB) leukemia
HOP-62 NSCLC = test system: HOP-62 NSCLC
HOP-92 NSCLC = test system: HOP-92 NSCLC
HT29 colon = test system: HT29 colon
IGROV1 ovarian = test system: IGROV1 ovarian
K-562 leukemia = test system: K-562 leukemia
KM12 colon = test system: KM12 colon
LOX IMVI melanoma = test system: LOX IMVI melanoma
M14 melanoma = test system: M14 melanoma
MCF7 breast = test system: MCF7 breast
MDA-MB-231 breast = test system: MDA-MB-231 breast
MDA-MB-435 = test system: MDA-MB-435
MOLT-4 leukemia = test system: MOLT-4 leukemia
NCI-H226 lung = test system: NCI-H226 lung
NCI-H23 lung = test system: NCI-H23 lung
NCI-H460 lung = test system: NCI-H460 lung
NCI-H522 lung = test system: NCI-H522 lung
NCI/ADR-RES ovarian = test system: NCI/ADR-RES ovarian
OVCAR-3 ovarian = test system: OVCAR-3 ovarian
OVCAR-4 ovarian = test system: OVCAR-4 ovarian
OVCAR-5 ovarian = test system: OVCAR-5 ovarian
OVCAR-8 ovarian = test system: OVCAR-8 ovarian
PC-3 prostate = test system: PC-3 prostate
RPMI-8226 leukemia = test system: RPMI-8226 leukemia
RXF 393 renal = test system: RXF 393 renal
SF-268 CNS = test system: SF-268 CNS
SF-295 CNS = test system: SF-295 CNS
SF-539 CNS = test system: SF-539 CNS
SK-MEL-2 melanoma = test system: SK-MEL-2 melanoma
SK-MEL-28 melanoma = test system: SK-MEL-28 melanoma
SK-MEL-5 melanoma = test system: SK-MEL-5 melanoma
SK-OV-3 ovarian = test system: SK-OV-3 ovarian
SN12C renal = test system: SN12C renal
SNB-19 CNS = test system: SNB-19 CNS
SNB-75 CNS = test system: SNB-75 CNS
SR leukemia = test system: SR leukemia
SW-620 colon = test system: SW-620 colon
T-47D breast = test system: T-47D breast
TK-10 renal = test system: TK-10 renal
U251 CNS = test system: U251 CNS
UACC-257 melanoma = test system: UACC-257 melanoma
UACC-62 melanoma = test system: UACC-62 melanoma
UO-31 renal = test system: UO-31 renal

CCOn1cc(C2=C(c3c[nH]c4ccccc34)C(=O)NC2=O)c2ccccc21
TGI (786-0 renal): 15.7 µM
GI50 (A549 NSCLC): < 28.4 nM
TGI (A549 NSCLC): 22.7 µM
TGI (ACHN renal): 16.4 µM
GI50 (CAKI-1 renal): < 12.1 nM
TGI (CAKI-1 renal): < 30.6 nM
GI50 (CCRF-CEM leukemia): 67.2 nM
TGI (CCRF-CEM leukemia): 19 µM
GI50 (COLO 205 colon): < 43.9 nM
GI50 (DU-145 prostate): 163 nM
TGI (DU-145 prostate): 16.9 µM
GI50 (EKVX NSCLC): 14.6 µM
TGI (EKVX NSCLC): 29.9 µM
GI50 (HCC-2998 colon): < 10 nM
TGI (HCC-2998 colon): < 10 nM
GI50 (HCT-116 colon): < 21.7 nM
TGI (HCT-116 colon): 4.03 µM
TGI (HCT-15 colon): 14.8 µM
GI50 (HL-60(TB) leukemia): < 17.6 nM
GI50 (HOP-62 NSCLC): < 10 nM
TGI (HOP-62 NSCLC): 18.5 µM
GI50 (HOP-92 NSCLC): 23.2 µM
TGI (HOP-92 NSCLC): 38.8 µM
GI50 (HT29 colon): < 22.4 nM
TGI (HT29 colon): 12.8 µM
GI50 (IGROV1 ovarian): 15.8 µM
TGI (IGROV1 ovarian): > 61.6 µM
GI50 (K-562 leukemia): < 13.9 nM
TGI (K-562 leukemia): > 33.1 µM
GI50 (KM12 colon): < 16.1 nM
TGI (KM12 colon): 2000 nM
TGI (LOX IMVI melanoma): 25.9 µM
GI50 (M14 melanoma): 54.2 nM
TGI (M14 melanoma): 17.9 µM
GI50 (MCF7 breast): < 14.9 nM
TGI (MCF7 breast): 1030 nM
GI50 (MDA-MB-231 breast): 806 nM
TGI (MDA-MB-231 breast): 26.4 µM
GI50 (MDA-MB-435): < 10 nM
TGI (MDA-MB-435): < 14.2 nM
GI50 (MOLT-4 leukemia): < 10 nM
TGI (MOLT-4 leukemia): 10.4 µM
GI50 (NCI-H226 lung): 1010 nM
TGI (NCI-H226 lung): 27.4 µM
GI50 (NCI-H23 lung): < 28 nM
TGI (NCI-H23 lung): 470 nM
TGI (NCI-H460 lung): 15.4 µM
TGI (NCI-H522 lung): > 33.6 µM
GI50 (NCI/ADR-RES ovarian): < 10 nM
TGI (NCI/ADR-RES ovarian): < 10 nM
GI50 (OVCAR-3 ovarian): < 11.7 nM
TGI (OVCAR-3 ovarian): < 18.2 nM
GI50 (OVCAR-4 ovarian): 14.6 µM
TGI (OVCAR-4 ovarian): > 72.4 µM
GI50 (OVCAR-5 ovarian): 398 nM
TGI (OVCAR-5 ovarian): 17.2 µM
GI50 (OVCAR-8 ovarian): 93.5 nM
TGI (OVCAR-8 ovarian): 20.3 µM
GI50 (PC-3 prostate): < 38.9 nM
TGI (PC-3 prostate): 17.3 µM
TGI (RPMI-8226 leukemia): 5.28 µM
GI50 (RXF 393 renal): < 32.5 nM
GI50 (SF-268 CNS): < 38.5 nM
TGI (SF-268 CNS): 25.1 µM
GI50 (SF-295 CNS): 15.6 nM
TGI (SF-295 CNS): 44.3 nM
GI50 (SF-539 CNS): < 10 nM
TGI (SF-539 CNS): < 10 nM
GI50 (SK-MEL-2 melanoma): 12.2 µM
TGI (SK-MEL-2 melanoma): 25.8 µM
GI50 (SK-MEL-28 melanoma): 2050 nM
TGI (SK-MEL-28 melanoma): 25.3 µM
GI50 (SK-MEL-5 melanoma): < 10 nM
TGI (SK-MEL-5 melanoma): < 10 nM
GI50 (SK-OV-3 ovarian): 62 nM
TGI (SK-OV-3 ovarian): 735 nM
GI50 (SN12C renal): 765 nM
TGI (SN12C renal): 14.8 µM
GI50 (SNB-19 CNS): < 26.4 nM
TGI (SNB-19 CNS): 20.5 µM
GI50 (SNB-75 CNS): < 28.8 nM
TGI (SNB-75 CNS): 34.8 µM
GI50 (SR leukemia): 34.3 nM
TGI (SR leukemia): 29.4 µM
GI50 (SW-620 colon): < 10 nM
TGI (SW-620 colon): 22.7 µM
GI50 (T-47D breast): 18.5 µM
TGI (T-47D breast): > 100 µM
GI50 (TK-10 renal): 32.2 nM
TGI (TK-10 renal): 198 nM
GI50 (U251 CNS): 488 nM
TGI (U251 CNS): 19.5 µM
GI50 (UACC-257 melanoma): 859 nM
TGI (UACC-257 melanoma): 20.5 µM
GI50 (UACC-62 melanoma): < 10 nM
TGI (UACC-62 melanoma): 20.3 µM
GI50 (UO-31 renal): 16.9 µM
TGI (UO-31 renal): > 47.4 µM
